Reference: the supplement of paper PMC5908809

Tests used:
[1] = test system: normal NK cells expanded with K562-aAPC; assay: drug sensitivity score (DSS) (DSS units); higher = more sensitive; extreme values may be limits of the assay; details: 72 h; IL-2 2.5 ng/mL
Procedure: (§1)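 Drug sensitivity and resistance testing on K562-aAPC-expanded normal NK cells: 5 concentrations (10-fold steps over a 10,000-fold range), 72 h at 37 °C, viability by CellTiter-Glo normalised to DMSO and benzethonium chloride controls; DSS from the fitted curve.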

[2] = test system: normal primary NK cells, pool 1 (3 donors) (IL-2 2.5 ng/mL); assay: as above; details: 72 h
[3] = test system: NK-YS (IL-2 2.5 ng/mL); assay: as above; details: 72 h
[4] = test system: IMC-1 (IL-2 20 ng/mL); assay: as above; details: 72 h
[5] = test system: SNK-6 (IL-2 2.5 ng/mL); assay: as above; details: 72 h
[6] = test system: KHYG-1 (IL-2 2.5 ng/mL); assay: as above; details: 72 h
[7] = test system: normal primary NK cells, pool 2 (3 donors) (IL-2 2.5 ng/mL); assay: as above; details: 72 h
[8] = test system: NK-92 (IL-2 2.5 ng/mL); assay: as above; details: 72 h
[9] = test system: KAI3 (IL-2 2.5 ng/mL); assay: as above; details: 72 h
[10] = test system: normal primary NK cells, pool 3 (3 donors) (IL-2 2.5 ng/mL); assay: as above; details: 72 h
[11] = test system: normal primary NK cells, pool 1 (3 donors), resting (IL-2 0 ng/mL); assay: as above; details: 72 h
[12] = test system: NKL (IL-2 2.5 ng/mL); assay: as above; details: 72 h
[13] = test system: DERL-7 (IL-2 2.5 ng/mL); assay: as above; details: 72 h
[14] = test system: YT (IL-2 2.5 ng/mL); assay: as above; details: 72 h
[15] = test system: normal NK cells expanded with K562-aAPC; assay: percent inhibition of viability; higher = more inhibition; details: 72 h, IL-2 2.5 ng/mL
Procedure: as §1

[16] = test system: normal primary NK cells, pool 1 (3 donors) (IL-2 2.5 ng/mL); assay: as above; details: 72 h
[17] = test system: NK-YS (IL-2 2.5 ng/mL); assay: as above; details: 72 h
[18] = test system: IMC-1 (IL-2 20 ng/mL); assay: as above; details: 72 h
[19] = test system: SNK-6 (IL-2 2.5 ng/mL); assay: as above; details: 72 h
[20] = test system: KHYG-1 (IL-2 2.5 ng/mL); assay: as above; details: 72 h
[21] = test system: normal primary NK cells, pool 2 (3 donors) (IL-2 2.5 ng/mL); assay: as above; details: 72 h
[22] = test system: NK-92 (IL-2 2.5 ng/mL); assay: as above; details: 72 h
[23] = test system: KAI3 (IL-2 2.5 ng/mL); assay: as above; details: 72 h
[24] = test system: normal primary NK cells, pool 3 (3 donors) (IL-2 2.5 ng/mL); assay: as above; details: 72 h
[25] = test system: normal primary NK cells, pool 1 (3 donors), resting (IL-2 0 ng/mL); assay: as above; details: 72 h
[26] = test system: NKL (IL-2 2.5 ng/mL); assay: as above; details: 72 h
[27] = test system: DERL-7 (IL-2 2.5 ng/mL); assay: as above; details: 72 h
[28] = test system: YT (IL-2 2.5 ng/mL); assay: as above; details: 72 h

Cc1sc2c(c1C)C(c1ccc(Cl)cc1)=N[C@@H](CC(=O)Nc1ccc(O)cc1)c1nnc(C)n1-2 [OTX015] (max concentration tested 10000 nM)
Details	drug sensitivity score
[1]	7.54
[2]	15.7
[3]	15.2
[4]	13.8
[5]	19.3
[6]	21.6
[7]	12.1
[8]	4.42
[9]	8.88
[10]	6.65
[11]	8.82
[12]	18.9
[13]	26.7
[14]	10.8

percent inhibition of viability [%]
Details	1 nM	10 nM	100 nM	1000 nM	10000 nM
[15]	-2.53	-1.01	4.29	35.6	59.9
[16]	-1.64	12.5	32.6	59.5	80.1
[17]	-0.13	1.91	28.4	62.4	81.9
[18]	-7.07	-8.73	1.26	73.2	97.4
[19]	15.4	3.9	54.7	66.5	49.5
[20]	-1.24	-0.67	38.7	91	106
[21]	-6.93	6.42	15.3	54.1	76.5
[22]	-10.2	-31	-32.9	22.6	36.9
[23]	3.12	-12.4	6.28	43.9	56.6
[24]	-1.79	8.04	9.85	28.3	57.8
[25]	-3.45	11.8	18.6	34.9	49.6
[26]	6.07	1.36	45.3	69.8	73.4
[27]	1.92	24	62	95.8	100
[28]	-1.39	-5.05	12.7	50.1	56.8

COc1cc2ncnc(Nc3ccc(F)c(Cl)c3)c2cc1OCCCN1CCOCC1 [Gefitinib] (max concentration tested 10000 nM)
Details	drug sensitivity score
[1]	5.01
[2]	0.66
[3]	2.2
[4]	0.3
[5]	9.38
[6]	6.6
[7]	2.32
[8]	4.15
[9]	4.99
[10]	1.42
[11]	3
[12]	5.38
[13]	4.07
[14]	3.98

percent inhibition of viability [%]
Details	1 nM	10 nM	100 nM	1000 nM	10000 nM
[15]	-4.93	-2.95	-4.74	12.3	56.2
[16]	-0.53	-12.4	-3.97	-11.3	26.3
[17]	-1.51	1.15	7.36	7.9	30.8
[18]	-4.89	1.4	2.3	2.27	13.5
[19]	25.8	34.7	27.6	9.98	42.4
[20]	-2.54	5.78	8.11	9.75	89.9
[21]	-22.1	-19.1	6.35	2.61	39.1
[22]	-2.12	5.54	-3.03	4.12	64.8
[23]	0.49	-0.54	-4.64	11.8	56.9
[24]	-15.3	-8.24	11.2	-13.2	40.1
[25]	-4.9	-15.9	-4.48	-7.6	64.4
[26]	-4.33	-6.47	-2.03	12	62.4
[27]	3.62	-2.09	5.77	1.47	70.4
[28]	-3.09	5.08	4.23	5.38	57.6

Cn1cnc2c(F)c(Nc3ccc(Br)cc3Cl)c(C(=O)NOCCO)cc21 [Selumetinib] (max concentration tested 10000 nM)
Details	drug sensitivity score
[1]	0.36
[2]	5.53
[3]	1.42
[4]	0.24
[5]	0
[6]	7.98
[7]	2.98
[8]	1.3
[9]	2.27
[10]	0.11
[11]	5.28
[12]	10.8
[13]	10.2
[14]	0.33

percent inhibition of viability [%]
Details	1 nM	10 nM	100 nM	1000 nM	10000 nM
[15]	-5.33	-3.66	-3.4	-0.06	16.8
[16]	-4.68	-3.55	18.9	23.4	19.1
[17]	5.92	-5.87	0.1	1.88	27.9
[18]	-12.4	-11.4	-5.26	-4.59	17.3
[19]	-18.1	-10.6	-25.8	-31.2	-26.9
[20]	1.06	-1.54	13.7	34.2	61.1
[21]	-9.3	-7.88	3.43	19.3	18.2
[22]	2.8	1.89	-10.2	-8.53	36.1
[23]	6.76	0.73	4.04	12.1	29.3
[24]	-5.55	-8.58	-1.51	-0.3	13.4
[25]	-1.79	-0.33	21.2	18.2	16.7
[26]	-4.4	-0.32	26.8	39	72.7
[27]	-4.06	8.89	24.4	38.2	51.5
[28]	2.15	-4.23	-5.27	-0.32	16.7

O=c1cc(N2CCOCC2)oc2c(-c3ccccc3)cccc12 (max concentration tested 100000 nM)
Details	drug sensitivity score
[1]	9.96
[2]	9.7
[3]	10.1
[4]	4.34
[5]	13.6
[6]	8.95
[7]	10.1
[8]	6.84
[9]	6.11
[10]	8.63
[11]	12.2
[12]	10.7
[13]	13.6
[14]	8.24

percent inhibition of viability [%]
Details	10 nM	100 nM	1000 nM	10000 nM	100000 nM
[15]	-2.73	-3.41	4.76	39.4	94.5
[16]	-1.05	3.02	7.28	35.5	97.6
[17]	-4.69	-3.69	1.75	45.5	83.3
[18]	-0.85	-3.31	-2.01	-5.98	86.2
[19]	3.19	3.24	18.5	59.4	92.6
[20]	-1.25	-1.33	4.59	30.1	89.5
[21]	-8.94	-2.33	8.53	41.1	95.9
[22]	-5.7	-3.95	-4.94	24	64.1
[23]	-1.02	-1.63	6.02	25.9	59.6
[24]	-5.94	-9.6	-2.64	20.7	96.5
[25]	-0.68	6.88	14.6	52.6	92.9
[26]	-14.3	-15.8	3.05	55.1	69.6
[27]	0.77	-1.71	9.97	64.1	97.4
[28]	1.36	2.44	6.09	37.3	68.7

CN(C)c1nc(N(C)C)nc(N(C)C)n1 [Altretamine] (max concentration tested 10000 nM)
Details	drug sensitivity score
[1]	0
[2]	0
[3]	0.51
[4]	0
[5]	0
[6]	0
[7]	0
[8]	0
[9]	4.61
[10]	0
[11]	2.84
[12]	0
[13]	0
[14]	0

percent inhibition of viability [%]
Details	1 nM	10 nM	100 nM	1000 nM	10000 nM
[15]	-2.99	-3.76	0.47	-2.02	-2.72
[16]	-5.08	-6.48	-0.04	-1.59	3.54
[17]	1.59	-1.58	1.2	11.7	9.31
[18]	-2.71	0.47	-4.67	-2.63	-6.93
[19]	-4.42	-8.89	-0.39	6.56	-2.57
[20]	-7.38	-7.34	-6.09	-2.99	-6.61
[21]	-3.77	-3.94	-0.13	0	1.61
[22]	-14.2	-12.6	-6.86	-1.41	-0.2
[23]	3.52	10.7	11.4	24.1	24.6
[24]	-9.05	-7.82	-1.85	-3.99	3.69
[25]	-0.78	-0.59	9.13	16.1	26
[26]	-10	-9.91	-10.4	1.45	1.87
[27]	-4.53	-2.77	0.97	2.22	0.81
[28]	-3.72	-5.67	-6.12	-0.77	-8.31
